≈ marks a conversion by molar mass, not a printed value. Where two headings read alike, the source gives them in different places. Positions of bridges follow the written chain, without caps; N, C: chain ends. Non-standard residues stand in square brackets, D forms with d. Residues, ends and D or L forms follow the SMILES beside them. ξ: configuration not given here. Lys(N3) = [N-]=[N+]=NCCCC[C@H](N)C(=O)O; R8 = C=CCCCCCC[C@@](C)(N)C(=O)O; ξαMeF = CC(N)(Cc1ccccc1)C(=O)O; Cba = N[C@@H](CC1CCC1)C(=O)O; S5 = C=CCCC[C@](C)(N)C(=O)O; hSer = N[C@@H](CCO)C(=O)O; Aib = CC(C)(N)C(=O)O; βAla = NCCC(=O)O
Legend:
[1] = Lactate dehydrogenase (LDH) release assay; assay type: cell-based
Outline: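 Membrane damage measured as lactate dehydrogenase release (CytoTox-ONE kit) from p53-responsive β-lactamase reporter HCT116 cells plated at 8000 per well. Final DMSO 0.5%; geometric mean reported from a minimum of three biological replicates.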

[2] = Experimental LogD (partition coefficient); conditions: for logD: not stated, Partition Coeff LogD
[3] = Solubility assay (kinetic solubility, PBS pH 7); assay type: physicochemical
Outline: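 Std: 10 mM stock → 100 µM in ACN/MeOH/DMSO (10:80:10). Sol. [µM] = (sample peak area / std peak area) × std conc.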

[4] = in vitro; conditions: Nanoclick permeability assay EC50
Outline: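 Azido-peptide permeability was read as loss of NanoBRET signal (donor 450 nm, acceptor 610 nm) after adding NanoBret618-azide at 10 μM final.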

[5] = system: Ca Ski cell line; conditions: 72 h
Procedure: (§1) The medium for CellSensor™ p53RE-bla HCT-116 cells was McCoy’s 5 A Medium (GIBCO16600-002) supplied with 10% FBS (Hyclone, SH30406.05), 100 U/100ug/ml of Pen/Strep (SolarBio, P1400) and 5 μg/ml of blasticidin (GIBCO, A11139). The medium for Ca Ski cells was RPMI1640 (Hyclone, SH3080901B) supplied with 10% FBS and 100 U/100ug/ml of Pen/Strep. All cells were kept in humidified incubators with 5% CO2 at 37 °C. Culture media was changed after one day of subculturing and cells were passed again when there was 70–80% confluence. One day before the assay, the cells were trypsinized, collected, counted and viability was determined. […] The plates were kept in humidified incubators with 5% CO2 at 37 °C overnight. Compounds were prepared as a 10 point, 3x serial dilution in 100% DMSO, starting from a top concentration of 10 mM. […] At the end of the incubation the assay plate was equilibrated at room temperature for approximately 30 minutes prior to the addition of 25 uL of CellTiter-Glo® 2.0 Reagent. The assay plate was mixed for 2 minutes on an orbital shaker to induce cell lysis. Next, the plate was incubated at room temperature for 10 minutes to stabilize the luminescent signal prior to recording the luminescence on a plate reader.

[6] = system: CellSensor p53RE-bla HCT-116 Cell Line; conditions: 72 h
Procedure: as §1

[7] = pH 7, aqueous buffer, kinetic from dmso stock, pH 7, PBS, read-out: Solubility

| Structure (SMILES) | EC50 ([1]; LDH: Cytotoxicity assay EC50) [µM] | logD [2] | solubility kinetic [3, 7] [µM] | cell entry EC50 [4] [µM] | EC50 [5] [µM] | EC50 [6] [µM] | EC50 ([1]; LDH: Cytotoxicity assay: EC50) [µM] | Partition Coeff LogD [2] | Solubility ([3]; pH 7, PBS) | solubility kinetic ([3]; pH 7, Solubility) [µM] |
| --- | --- | --- | --- | --- | --- | --- | --- | --- | --- | --- |
| CC(=O)N[C@@H](CCCCN=[N+]=[N-])C(=O)NCCC(=O)N[C@@H](CC(C)C)C(=O)N[C@H](C(=O)N[C@@H](Cc1ccccc1)C(=O)N[C@]1(C)CCCCCCC=CCCC[C@@](C)(C(=O)N[C@@H](CCC(=O)O)C(=O)N[C@@H](C)C(=O)N[C@@H](Cc2ccccc2)C(=O)N[C@@H](C)C(=O)N[C@@H](CCC(N)=O)C(=O)N[C@@H](Cc2ccccc2)C(N)=O)NC(=O)[C@H](CC2CCC2)NC(=O)[C@H](CCC(N)=O)NC(=O)[C@H](C)NC(=O)[C@H](Cc2c[nH]c3ccccc23)NC(=O)[C@H](Cc2ccc(O)cc2)NC(=O)[C@H](CCC(=O)O)NC1=O)[C@@H](C)O [MP-832] (Ac-[Lys(N3)][βAla]LTF[R8]EYWAQ[Cba][S5]EAFAQF-NH2; staple 6-13) | > 50.7 | 3.01 | 157 (≈ 382 µg/mL) | 4.88 | 22.3 | 4.17 |  |  |  |  |
| CC(=O)N[C@@H](CCCCN=[N+]=[N-])C(=O)NCCC(=O)N[C@@H](CC(C)C)C(=O)N[C@H](C(=O)N[C@@H](Cc1ccccc1)C(=O)N[C@]1(C)CCCCCCC=CCCC[C@@](C)(C(=O)N[C@@H](C)C(=O)N[C@@H](CCO)C(=O)N[C@@H](C)C(=O)N[C@@H](C)C(=O)N[C@@H](C)C(=O)N[C@H](C)C(N)=O)NC(=O)[C@H](CC2CCC2)NC(=O)[C@H](CCC(N)=O)NC(=O)[C@H](C)NC(=O)[C@H](Cc2c[nH]c3ccccc23)NC(=O)[C@H](Cc2ccc(O)cc2)NC(=O)[C@H](CCC(=O)O)NC1=O)[C@@H](C)O [MP-831] (Ac-[Lys(N3)][βAla]LTF[R8]EYWAQ[Cba][S5]A[hSer]AAA[dA]-NH2; staple 6-13) | > 50.7 | 3.13 | 175 (≈ 385 µg/mL) | > 10 | > 49.8 | 0.428 |  |  |  |  |
| CC(=O)N[C@@H](CCCCN=[N+]=[N-])C(=O)NCCC(=O)N[C@@H](CC(C)C)C(=O)N[C@H](C(=O)N[C@@H](Cc1ccccc1)C(=O)N[C@]1(C)CCCCCCC=CCCC[C@@](C)(C(=O)N[C@@H](C)C(=O)N[C@@H](C)C(=O)N[C@@H](Cc2ccccc2)C(=O)N[C@@H](C)C(=O)N[C@@H](C)C(=O)NC(C)(Cc2ccccc2)C(N)=O)NC(=O)[C@H](CC2CCC2)NC(=O)[C@H](CCC(N)=O)NC(=O)[C@H](C)NC(=O)[C@H](Cc2c[nH]c3ccccc23)NC(=O)[C@H](Cc2ccc(O)cc2)NC(=O)[C@H](CCC(=O)O)NC1=O)[C@@H](C)O (stereo partly shown) [MP-288] (Ac-[Lys(N3)][βAla]LTF[R8]EYWAQ[Cba][S5]AAFAA[ξαMeF]-NH2; staple 6-13) |  | 4.11 | 12 (≈ 28 µg/mL) | 1.58 | > 49.8 | 2.74 | > 50.7 |  |  |  |
| CC(=O)N[C@@H](CCCCN=[N+]=[N-])C(=O)NCCC(=O)N[C@@H](CC(C)C)C(=O)N[C@H](C(=O)N[C@@H](Cc1ccccc1)C(=O)N[C@]1(C)CCCCCCC=CCCC[C@@](C)(C(=O)N[C@@H](C)C(=O)N[C@@H](C)C(=O)N[C@@H](C)C(=O)N[C@@H](C)C(=O)N[C@@H](C)C(=O)N[C@@H](C)C(=O)N[C@@H](C)C(=O)N[C@@H](C)C(=O)N[C@@H](C)C(N)=O)NC(=O)[C@H](CC2CCC2)NC(=O)[C@H](CCC(N)=O)NC(=O)[C@H](C)NC(=O)[C@H](Cc2c[nH]c3ccccc23)NC(=O)[C@H](Cc2ccc(O)cc2)NC(=O)[C@H](CCC(=O)O)NC1=O)[C@@H](C)O [MP-759] (Ac-[Lys(N3)][βAla]LTF[R8]EYWAQ[Cba][S5]AAAAAAAAA-NH2; staple 6-13) |  | 3.49 | 15 (≈ 35.7 µg/mL) | 3.41 | 25.9 | 2.44 | > 50.7 |  |  |  |
| CC(=O)N[C@@H](CCCCN=[N+]=[N-])C(=O)NCCC(=O)N[C@@H](CC(C)C)C(=O)N[C@H](C(=O)N[C@@H](Cc1ccccc1)C(=O)N[C@]1(C)CCCCCCC=CCCC[C@@](C)(C(=O)N[C@@H](C)C(=O)N[C@@H](C)C(=O)N[C@@H](Cc2ccccc2)C(=O)NC(C)(C)C(=O)N[C@@H](C)C(=O)N[C@@H](C)C(N)=O)NC(=O)[C@H](CC2CCC2)NC(=O)[C@H](CCC(N)=O)NC(=O)[C@H](C)NC(=O)[C@H](Cc2c[nH]c3ccccc23)NC(=O)[C@H](Cc2ccc(O)cc2)NC(=O)[C@H](CCC(=O)O)NC1=O)[C@@H](C)O [MP-801] (Ac-[Lys(N3)][βAla]LTF[R8]EYWAQ[Cba][S5]AAF[Aib]AA-NH2; staple 6-13) |  |  |  | 4.71 | 19.1 | 4.58 |  | Poorly Behaved | Poorly Behaved |  |
| CC(=O)N[C@@H](CCCCN=[N+]=[N-])C(=O)NCCC(=O)N[C@@H](CC(C)C)C(=O)N[C@H](C(=O)N[C@@H](Cc1ccccc1)C(=O)N[C@]1(C)CCCCCCC=CCCC[C@@](C)(C(=O)N[C@@H](C)C(=O)N[C@@H](C)C(=O)N[C@@H](C)C(=O)N[C@@H](C)C(=O)N[C@@H](CCC(=O)O)C(=O)N[C@H](C)C(N)=O)NC(=O)[C@H](CC2CCC2)NC(=O)[C@H](CCC(N)=O)NC(=O)[C@H](C)NC(=O)[C@H](Cc2c[nH]c3ccccc23)NC(=O)[C@H](Cc2ccc(O)cc2)NC(=O)[C@H](CCC(=O)O)NC1=O)[C@@H](C)O [MP-837] (Ac-[Lys(N3)][βAla]LTF[R8]EYWAQ[Cba][S5]AAAAE[dA]-NH2; staple 6-13) | > 50.7 | 2.53 | 160 (≈ 356 µg/mL) | 1.52 | > 49.8 | 0.66 |  |  |  |  |
| CC(=O)N[C@@H](CCCCN=[N+]=[N-])C(=O)NCCC(=O)N[C@@H](CC(C)C)C(=O)N[C@H](C(=O)N[C@@H](Cc1ccccc1)C(=O)N[C@]1(C)CCCCCCC=CCCC[C@@](C)(C(=O)N[C@@H](C)C(=O)N[C@@H](C)C(=O)N[C@@H](C)C(=O)N[C@@H](C)C(=O)N[C@@H](C)C(N)=O)NC(=O)[C@H](CC2CCC2)NC(=O)[C@H](CCC(N)=O)NC(=O)[C@H](C)NC(=O)[C@H](Cc2c[nH]c3ccccc23)NC(=O)[C@H](Cc2ccc(O)cc2)NC(=O)[C@H](CCC(=O)O)NC1=O)[C@@H](C)O [MP-685] (Ac-[Lys(N3)][βAla]LTF[R8]EYWAQ[Cba][S5]AAAAA-NH2; staple 6-13) | > 50.7 |  |  | > 10 | 22.8 | 9.55 |  |  |  |  |
| CC(=O)N[C@@H](CCCCN=[N+]=[N-])C(=O)NCCC(=O)N[C@@H](CC(C)C)C(=O)N[C@H](C(=O)N[C@@H](Cc1ccccc1)C(=O)N[C@]1(C)CCCCCCC=CCCC[C@@](C)(C(=O)N[C@@H](C)C(=O)N[C@@H](C)C(=O)N[C@@H](C)C(=O)N[C@@H](C)C(=O)N[C@@H](C)C(=O)N[C@@H](CCC(=O)O)C(N)=O)NC(=O)[C@H](CC2CCC2)NC(=O)[C@H](CCC(N)=O)NC(=O)[C@H](C)NC(=O)[C@H](Cc2c[nH]c3ccccc23)NC(=O)[C@H](Cc2ccc(O)cc2)NC(=O)[C@H](CCC(=O)O)NC1=O)[C@@H](C)O [MP-836] (Ac-[Lys(N3)][βAla]LTF[R8]EYWAQ[Cba][S5]AAAAAE-NH2; staple 6-13) | > 50.7 | 2.43 | 164 (≈ 365 µg/mL) | 1.77 | > 49.8 | 1.05 |  |  |  |  |
| CC(=O)N[C@@H](CCCCN=[N+]=[N-])C(=O)NCCC(=O)N[C@@H](CC(C)C)C(=O)N[C@H](C(=O)N[C@@H](Cc1ccccc1)C(=O)N[C@]1(C)CCCCCCC=CCCC[C@@](C)(C(=O)N[C@@H](C)C(=O)N[C@H](C)C(=O)N[C@@H](C)C(=O)N[C@H](C)C(=O)N[C@@H](C)C(=O)N[C@H](C)C(N)=O)NC(=O)[C@H](CC2CCC2)NC(=O)[C@H](CCC(N)=O)NC(=O)[C@H](C)NC(=O)[C@H](Cc2c[nH]c3ccccc23)NC(=O)[C@H](Cc2ccc(O)cc2)NC(=O)[C@H](CCC(=O)O)NC1=O)[C@@H](C)O [MP-056] (Ac-[Lys(N3)][βAla]LTF[R8]EYWAQ[Cba][S5]A[dA]A[dA]A[dA]-NH2; staple 6-13) |  | 2.83 | 147 (≈ 319 µg/mL) | 5.21 | > 49.8 | 3.3 | > 50.7 |  |  | 157 (≈ 340 µg/mL) |
| CC(=O)N[C@@H](CCCCN=[N+]=[N-])C(=O)NCCC(=O)N[C@@H](CC(C)C)C(=O)N[C@H](C(=O)N[C@@H](Cc1ccccc1)C(=O)N[C@]1(C)CCCCCCC=CCCC[C@@](C)(C(=O)N[C@@H](C)C(=O)N[C@@H](CC(C)C)C(=O)N[C@@H](C)C(=O)N[C@@H](C)C(=O)N[C@@H](C)C(=O)N[C@H](C)C(N)=O)NC(=O)[C@H](CC2CCC2)NC(=O)[C@H](CCC(N)=O)NC(=O)[C@H](C)NC(=O)[C@H](Cc2c[nH]c3ccccc23)NC(=O)[C@H](Cc2ccc(O)cc2)NC(=O)[C@H](CCC(=O)O)NC1=O)[C@@H](C)O [MP-968] (Ac-[Lys(N3)][βAla]LTF[R8]EYWAQ[Cba][S5]ALAAA[dA]-NH2; staple 6-13) | > 50.7 |  |  | 4.2 | 43.1 | 1.41 |  | Poorly Behaved | Poorly Behaved |  |

From paper PMC10786919, “Design-rules for stapled peptides with in vivo activity and their application to Mdm2/X antagonists” (Nature Communications, 2024)
